Measurements as given in publication PMC12054466 (RSC Advances, 2025).
Where two headings read alike, the source gives them in different places.

Key:
[1] = format: binding
[2] = rabbits, single oral dose 10 mg kg^−1, n = 5, mean; unit as in Table 4

- λz [2]: 0.06 h
Compound: CC(C)(C(=O)O)c1ccc(C(O)CCCN2CCC(C(O)(c3ccccc3)c3ccccc3)CC2)cc1 (stereo not shown) [fexofenadine, Fexofenadine]
- Ksv (Stern–Volmer quenching constant) ([1]; 298 K (25 °C)): 1.36 10^6 M^−1
- Ksv (Stern–Volmer quenching constant) ([1]; 303 K): 1.09 10^6 M^−1
- Ksv (Stern–Volmer quenching constant) ([1]; 308 K (35 °C)): 0.95 10^6 M^−1
